Laboratory results: ChEMBL document CHEMBL1201862, “PubChem BioAssay data set” (2004)
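1) Cells in 96-well plates. 2) Compound, 48 h, 5 concentrations. 3) Linear interpolation between surrounding doses. 4) Unreached endpoint = highest concentration. Here, GI50 denotes the concentration required for 50% inhibition of growth.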 Activity calls are given as the source filed them. Rule as the data show it: active = GI50 up to about 1.1 µM and inactive = higher.

Experiments:
Experiment in all cases: NCI tumour cell line growth inhibition, 48 h
SK-MEL-5 = tested on: SK-MEL-5
ACHN = tested on: ACHN
SNB-75 = tested on: SNB-75
U-251 = tested on: U-251
NCI-H23 = tested on: NCI-H23
IGROV-1 = tested on: IGROV-1
NCI-H460 = tested on: NCI-H460
DMS-114 = tested on: DMS-114
SK-MEL-28 = tested on: SK-MEL-28
SF-268 = tested on: SF-268
HT-29 = tested on: HT-29
SK-OV-3 = tested on: SK-OV-3
TK-10 = tested on: TK-10
NCI-H226 = tested on: NCI-H226
SNB-19 = tested on: SNB-19
OVCAR-5 = tested on: OVCAR-5
Malme-3M = tested on: Malme-3M
786-0 = tested on: 786-0
KM12 = tested on: KM12
RXF 393 = tested on: RXF 393
HOP-62 = tested on: HOP-62
KM-20L2 = tested on: KM-20L2
SF-539 = tested on: SF-539
SNB-78 = tested on: SNB-78
OVCAR-3 = tested on: OVCAR-3
UACC-62 = tested on: UACC-62
CCRF-CEM = tested on: CCRF-CEM
LXFL 529 = tested on: LXFL 529
MOLT-4 = tested on: MOLT-4
COLO 205 = tested on: COLO 205
HCT-15 = tested on: HCT-15
HCT-116 = tested on: HCT-116
CAKI-1 = tested on: CAKI-1
SK-MEL-2 = tested on: SK-MEL-2
M14 = tested on: M14
A549 = tested on: A549
OVCAR-4 = tested on: OVCAR-4
SW-620 = tested on: SW-620
LOX IMVI = tested on: LOX IMVI
EKVX = tested on: EKVX
DMS-273 = tested on: DMS-273
UO-31 = tested on: UO-31
UACC-257 = tested on: UACC-257
HL-60 = tested on: HL-60
HOP-18 = tested on: HOP-18
HOP-92 = tested on: HOP-92
DLD-1 = tested on: DLD-1
RPMI-8226 = tested on: RPMI-8226
K562 = tested on: K562
SF-295 = tested on: SF-295
SR = tested on: SR
HCC 2998 = tested on: HCC 2998
SN12C = tested on: SN12C
XF498 = tested on: XF498
OVCAR-8 = tested on: OVCAR-8
M19-MEL = tested on: M19-MEL
A498 = tested on: A498
NCI-H522 = tested on: NCI-H522

With CP1(=O)CCCCC1 the GI50 (SK-MEL-5) was > 100 µM (inactive), the GI50 (ACHN) was > 100 µM (inactive) and the GI50 (SNB-75) was > 100 µM (inactive). The GI50 (U-251) was > 100 µM (inactive), the GI50 (NCI-H23) was > 100 µM (inactive) and the GI50 (IGROV-1) was > 100 µM (inactive). The GI50 (NCI-H460) was > 100 µM (inactive), the GI50 (DMS-114) was > 100 µM (inactive) and the GI50 (SK-MEL-28) was > 100 µM (inactive). For the same compound, the GI50 (SF-268) was > 100 µM (inactive), the GI50 (HT-29) was > 100 µM (inactive) and the GI50 (SK-OV-3) was > 100 µM (inactive). The GI50 (TK-10) was > 100 µM (inactive), the GI50 (NCI-H226) was > 100 µM (inactive) and the GI50 (SNB-19) was > 100 µM (inactive). The GI50 (OVCAR-5) was > 100 µM (inactive), the GI50 (Malme-3M) was > 100 µM (inactive) and the GI50 (786-0) was > 100 µM (inactive). The GI50 (KM12) was > 100 µM (inactive), the GI50 (RXF 393) was > 100 µM (inactive) and the GI50 (HOP-62) was > 100 µM (inactive). The GI50 (KM-20L2) was > 100 µM (inactive), the GI50 (SF-539) was > 100 µM (inactive) and the GI50 (SNB-78) was > 100 µM (inactive). For the same compound, the GI50 (OVCAR-3) was > 100 µM (inactive), the GI50 (UACC-62) was > 100 µM (inactive) and the GI50 (CCRF-CEM) was > 100 µM (inactive). For the same compound, the GI50 (LXFL 529) was > 100 µM (inactive), the GI50 (MOLT-4) was > 100 µM (inactive) and the GI50 (COLO 205) was > 100 µM (inactive). For the same compound, the GI50 (HCT-15) was over 100 µM, the GI50 (HCT-116) was > 100 µM (inactive) and the GI50 (CAKI-1) was > 100 µM (inactive). For the same compound, the GI50 (SK-MEL-2) was > 100 µM (inactive), the GI50 (M14) was > 100 µM (inactive) and the GI50 (A549) was > 100 µM (inactive). The GI50 (OVCAR-4) was > 100 µM (inactive), the GI50 (SW-620) was > 100 µM (inactive) and the GI50 (LOX IMVI) was > 100 µM (inactive). The GI50 (EKVX) was > 100 µM (inactive), the GI50 (DMS-273) was > 100 µM (inactive) and the GI50 (UO-31) was > 100 µM (inactive). For the same compound, the GI50 (UACC-257) was > 100 µM (inactive), the GI50 (HL-60) was > 100 µM (inactive) and the GI50 (HOP-18) was > 100 µM (inactive). For the same compound, the GI50 (HOP-92) was > 100 µM (inactive), the GI50 (DLD-1) was > 100 µM (inactive) and the GI50 (RPMI-8226) was > 100 µM (inactive). The GI50 (K562) was > 100 µM (inactive), the GI50 (SF-295) was > 100 µM (inactive) and the GI50 (SR) was > 100 µM (inactive). For the same compound, the GI50 (HCC 2998) was > 100 µM (inactive), the GI50 (SN12C) was > 100 µM (inactive) and the GI50 (XF498) was > 100 µM (inactive). The GI50 (OVCAR-8) was > 100 µM (inactive) and the GI50 (M19-MEL) was > 100 µM (inactive).
Cn1c(=O)nc2n(-c3ccc(F)cc3)c3ccccc3nc-2c1=O was tested, and the GI50 (SK-MEL-5) was 12.6 µM (inactive), the GI50 (ACHN) was 13.9 µM (inactive) and the GI50 (A498) was 32.6 µM (inactive). The GI50 (NCI-H522) was 16.1 µM (inactive), the GI50 (SNB-75) was 31 µM (inactive) and the GI50 (U-251) was 21.5 µM (inactive). The GI50 (NCI-H23) was 20 µM (inactive), the GI50 (IGROV-1) was 24 µM (inactive) and the GI50 (NCI-H460) was 18.2 µM (inactive). For the same compound, the GI50 (DMS-114) was 12.8 µM (inactive), the GI50 (SF-268) was 28.2 µM (inactive) and the GI50 (HT-29) was 14.1 µM (inactive). For the same compound, the GI50 (SK-OV-3) was > 100 µM (inactive), the GI50 (TK-10) was 26.5 µM (inactive) and the GI50 (NCI-H226) was 36.7 µM (inactive). The GI50 (SNB-19) was 13.9 µM (inactive), the GI50 (OVCAR-5) was 24.3 µM (inactive) and the GI50 (Malme-3M) was 10.5 µM (inactive). For the same compound, the GI50 (786-0) was 28.2 µM (inactive), the GI50 (KM12) was 24.7 µM (inactive) and the GI50 (RXF 393) was 23.8 µM (inactive). The GI50 (HOP-62) was 46.7 µM (inactive), the GI50 (KM-20L2) was 19.8 µM (inactive) and the GI50 (SF-539) was 21.3 µM (inactive). The GI50 (SNB-78) was 20 µM (inactive), the GI50 (OVCAR-3) was 3.13 µM (inactive) and the GI50 (UACC-62) was 12.2 µM (inactive). For the same compound, the GI50 (CCRF-CEM) was 26.6 µM (inactive), the GI50 (LXFL 529) was 22.8 µM (inactive) and the GI50 (MOLT-4) was 25.7 µM (inactive). The GI50 (COLO 205) was 6.84 µM (inactive), the GI50 (HCT-15) was 16.4 µM and the GI50 (HCT-116) was 17.5 µM (inactive). The GI50 (CAKI-1) was 28.8 µM (inactive), the GI50 (SK-MEL-2) was 19 µM (inactive) and the GI50 (M14) was 13.9 µM (inactive). For the same compound, the GI50 (A549) was 18.3 µM (inactive), the GI50 (OVCAR-4) was 14.4 µM (inactive) and the GI50 (SW-620) was 18.8 µM (inactive). For the same compound, the GI50 (EKVX) was 16.4 µM (inactive), the GI50 (DMS-273) was 17 µM (inactive) and the GI50 (UO-31) was 38.4 µM (inactive). For the same compound, the GI50 (UACC-257) was 14.4 µM (inactive), the GI50 (HOP-18) was 19.4 µM (inactive) and the GI50 (DLD-1) was 19.5 µM (inactive). For the same compound, the GI50 (RPMI-8226) was 25.2 µM (inactive), the GI50 (K562) was 19.9 µM (inactive) and the GI50 (SF-295) was 18.7 µM (inactive). The GI50 (HCC 2998) was 19.1 µM (inactive), the GI50 (SN12C) was 20.5 µM (inactive) and the GI50 (XF498) was 19.3 µM (inactive). For the same compound, the GI50 (OVCAR-8) was 20.5 µM (inactive) and the GI50 (M19-MEL) was 2.89 µM (inactive).
With CC(=O)OC1C2CCC1C1C2C2(Cl)C(Cl)=C(Cl)C1(Cl)C2(Cl)Cl (configuration not stated) the GI50 (SK-MEL-5) was 13 µM (inactive), the GI50 (ACHN) was 12.2 µM (inactive) and the GI50 (A498) was 13.9 µM (inactive). For the same compound, the GI50 (NCI-H522) was 12.3 µM (inactive), the GI50 (SNB-75) was 14.7 µM (inactive) and the GI50 (U-251) was 13.3 µM (inactive). For the same compound, the GI50 (NCI-H23) was 12.2 µM (inactive), the GI50 (IGROV-1) was 16.4 µM (inactive) and the GI50 (NCI-H460) was 14.3 µM (inactive). For the same compound, the GI50 (DMS-114) was 12.6 µM (inactive), the GI50 (SK-MEL-28) was 18.2 µM (inactive) and the GI50 (SF-268) was 17.7 µM (inactive). For the same compound, the GI50 (HT-29) was 12.3 µM (inactive), the GI50 (SK-OV-3) was 16 µM (inactive) and the GI50 (TK-10) was 15.3 µM (inactive). For the same compound, the GI50 (NCI-H226) was 13 µM (inactive), the GI50 (SNB-19) was 15.1 µM (inactive) and the GI50 (OVCAR-5) was 11.1 µM (inactive). The GI50 (Malme-3M) was 12.6 µM (inactive), the GI50 (786-0) was 14.1 µM (inactive) and the GI50 (KM12) was 13 µM (inactive). For the same compound, the GI50 (RXF 393) was 15.1 µM (inactive), the GI50 (HOP-62) was 15.5 µM (inactive) and the GI50 (KM-20L2) was 10.1 µM (inactive). The GI50 (SF-539) was 16.6 µM (inactive), the GI50 (SNB-78) was 17.4 µM (inactive) and the GI50 (OVCAR-3) was 11.4 µM (inactive). For the same compound, the GI50 (UACC-62) was 12.4 µM (inactive), the GI50 (LXFL 529) was 12.5 µM (inactive) and the GI50 (MOLT-4) was 11 µM (inactive). For the same compound, the GI50 (COLO 205) was 15 µM (inactive), the GI50 (HCT-116) was 11.2 µM (inactive) and the GI50 (CAKI-1) was 13.8 µM (inactive). The GI50 (SK-MEL-2) was 10.2 µM (inactive), the GI50 (M14) was 12.4 µM (inactive) and the GI50 (A549) was 10.5 µM (inactive). The GI50 (OVCAR-4) was 19.7 µM (inactive), the GI50 (SW-620) was 14.5 µM (inactive) and the GI50 (LOX IMVI) was 15.2 µM (inactive). For the same compound, the GI50 (EKVX) was 11.3 µM (inactive), the GI50 (DMS-273) was 12.2 µM (inactive) and the GI50 (UO-31) was 12.5 µM (inactive). The GI50 (UACC-257) was 13.2 µM (inactive), the GI50 (HOP-18) was 18.9 µM (inactive) and the GI50 (HOP-92) was 11.2 µM (inactive). For the same compound, the GI50 (DLD-1) was 15.1 µM (inactive), the GI50 (RPMI-8226) was 6.05 µM (inactive) and the GI50 (SF-295) was 11.3 µM (inactive). For the same compound, the GI50 (SR) was 9.95 µM (inactive), the GI50 (SN12C) was 15.1 µM (inactive) and the GI50 (XF498) was 11 µM (inactive). The GI50 (OVCAR-8) was 15.4 µM (inactive) and the GI50 (M19-MEL) was 13.3 µM (inactive).
